Values quoted from earlier work in patent EP4108230A1, “NEW DRY POWDER COMPOSITION OF TIOTROPIUM FOR INHALATION” (Laboratoires SMB, priority 2021, dated 2022).

solubility in methanol (methanol): soluble | solubility in water (water): sparingly soluble
Compound: C[N+]1(C)[C@@H]2C[C@@H](OC(=O)C(O)(c3cccs3)c3cccs3)C[C@H]1[C@@H]1O[C@@H]12 [Tiotropium bromide, (1α, 2β, 4 β, 5α, 7β)-7-[(Hydroxydi-2-thienylacetyl)oxy]-9,9-dimethyl-3-oxa-9-azoniatricyclo[3.3.1.02,4] nonane bromide monohydrate]
